{"source": "patent US20260139222A1", "about": "“SYSTEMS WITH BIO-ENGINEERED ADHESIVE SILOXANE SUBSTRATE OF TUNABLE STIFFNESS AND METHODS OF USE THEREOF” (NUTECH VENTURES, priority 2022, published 2026)", "key": {"[1]": {"test_system": "HMC3 microglia", "experiment": "Morphology of HMC3 microglia on BEASTS surfaces after NAC pretreatment", "type": "cell-based, human", "settings": "0.25 mM NAC pretreatment; after 11 days; all stiffnesses", "experimental": "To investigate the protective effect of NAC on stiffness-activated microglia, microglial cells were pretreated with 0.25 and 2.5 mM NAC prior to seeding. After 11 days, the morphology was ramified across all treatments with 0.25 mM NAC (FIG. 17A). ROS production was then measured. […] Next, the genotypes of untreated microglia were compared with NAC-treated microglia and an attenuation was found in each transcript. […] Additionally the MI profile correspondingly attenuated and mechanosensors; however, the M2 marker PPARG increased. To investigate the influence of NAC on caspase-1 stiffness-driven inflammation, the activity of caspase-1 was measured. The activity was reduced in 2 and 8 kPa; however, 25 kPa had increased caspase-1 activity, corroborating the findings with the loss of the CX3CR1 transcript (FIGS. 17E and 17F). […] Together, these findings indicate that pre-treatment of NAC attenuates ROS-driven dysfunction in stiffness-activated microglia. […] BV2 mouse microglia and HMC3 human cells: All cells were grown in aseptic conditions following standard cell culture protocol and stored in an incubator set at 37° C. with 5% CO2. […] Microglia were grown for 11 days and then assessed using qRT-PCR, counting, and luminescent assays."}, "[2]": {"test_system": "HMC3 microglia", "experiment": "Total intracellular ROS (H2DCFDA dye) in microglia on stiffness after NAC pretreatment", "type": "cell-based, human", "settings": "NAC-pre-treated microglia; 11 days on stiffness (2, 8, 25 kPa)", "experimental": "ROS Quantification and Imaging: 5-(and6)-Chloromethyl-2′,7′-dichlorodihydro-fluorescein diacetate (CM-H2DCFDA) is a fluorescent indicator activated by the presence of ROS. The intensity of CM-H2DCFDA was measured by calculating the corrected total cell fluorescence (CTCF) from The Open Lab Book Imaging protocols. Microglial cells were plated onto 12-well plates at a density of 75,000 cells/mL. Microglial cells were grown to confluency and then 10 μM DCF-DA (Invitrogen) was added to all wells, and cells were incubated for a further 30 minutes before analysis of ROS-activated DCF-DA fluorescence (FL-1/525 nm).\n(§1) NAC administration in microglial cells: NAC was purchased (Sigma-Aldrich, St. Louis, MO, USA) and was used in treatment after seeding microglial cells for 3 hours with a 2×PBS wash, then replaced with microglia media every 72 hours. Concentrations of 0.25 and 2.5 mM were used 36. Microglia were grown for 11 days and then assessed using qRT-PCR, counting, and luminescent assays."}, "[3]": {"test_system": "HMC3 microglia", "experiment": "qRT-PCR gene expression in microglia with and without NAC pretreatment", "type": "cell-based, human", "experimental": "NAC administration in microglial cells: NAC was purchased (Sigma-Aldrich, St. Louis, MO, USA) and was used in treatment after seeding microglial cells for 3 hours with a 2×PBS wash, then replaced with microglia media every 72 hours. Concentrations of 0.25 and 2.5 mM were used 36. Microglia were grown for 11 days and then assessed using qRT-PCR, counting, and luminescent assays. Gene Expression by Quantitative RT-PCR (qRT-PCR): Total RNA expression was extracted from microglial cells using TRIzol reagent (Invitrogen, CA, USA) and RNA samples were quantified by Take3 Micro-Volume Plate reader (BioTek, VT, USA) by spectrophotometry at 260/280 nm. Purity was assessed by an absence of 320 nm. RNA samples were reverse transcribed using the M-MuLV RT reagent Kit (New England BioLabs, MA, USA). Relative mRNA levels were determined by real-time PCR using a SYBR® PowerUp master mix and a real-time PCR detection system (Mastercycler Realplex ep gradient, Eppendorf, Hamburg, Germany). Data were expressed in Ct values normalized to 18S and […] between control (2 kPa) and treated groups (8, 15, 25 kPa) was determined using the 2-ΔΔCt method. The telomerase-associated genes were probed using the TaqManTM Array Human Telomere Extension by Telomerase (Applied Biosystems #4414187) with multiple plates. Briefly, samples were loaded with SYBR® PowerUp master mix and a real-time PCR detection system (Mastercycler Realplex ep gradient, Eppendorf, Hamburg, Germany). Data were expressed in Ct values normalized to endogenous controls provided with the array and […] and older change between groups was determined using the 2-ΔΔCt method."}, "[4]": {"target": "T1, caspase-1 (Homo sapiens, UniProt P29466)", "T1 construct": "endogenous in cells; host or cells: microglial cells (HMC3 inferred)", "T1 sequence (P29466 120-297 limits assumed)": "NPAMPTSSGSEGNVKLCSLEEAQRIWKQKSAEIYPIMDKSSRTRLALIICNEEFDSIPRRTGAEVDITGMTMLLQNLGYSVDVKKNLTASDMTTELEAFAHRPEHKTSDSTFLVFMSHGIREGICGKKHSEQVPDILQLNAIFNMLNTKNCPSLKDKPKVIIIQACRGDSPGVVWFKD", "T1 sequence (P29466 317-404 limits assumed)": "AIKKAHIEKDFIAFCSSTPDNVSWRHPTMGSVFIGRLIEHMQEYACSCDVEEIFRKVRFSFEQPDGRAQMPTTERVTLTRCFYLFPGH", "experiment": "Intracellular caspase-1 activity, bioluminescent assay of microglia", "type": "cell-based", "settings": "NAC pretreatment", "experimental": "(§2) Caspase-1 and Non-canonical Inflammasome Activity Assays: Detection of caspase-1 and non-canonical caspases using a luciferase assay was performed using Caspase-Glo™ Inflammasome Assay (Cat #G9951; Promega, Madison WI, USA) according to the manufacturer's instructions. Briefly, microglial cells were grown in 12-well plates on differing stiffness for 11 days and then plated with a selective caspase-1 substate, Z-WEHD, for catalytically active caspase-1 with or without a caspase-1 specific inhibitor, Ac-YVAD-CHO, to confirm specific activity in parallel samples. The Ac-YVAD-CHO has minimal effect on other cross-reacting caspases 3, 5, and 6, thereby, representing non-canonical inflammatory caspase activity. Total luminescence was measured using a Synergy™ 2 multi-mode microplate reader (BioTek, VT, USA).\nas §1"}, "[5]": {"test_system": "caspases 3, 5, and 6", "experiment": "Non-canonical caspase activity (with Ac-YVAD-CHO) in microglia", "type": "cell-based, human", "settings": "NAC pre-treatment", "experimental": "as §2, with “USA). NAC administration in microglial cells: NAC was purchased (Sigma-Aldrich, St. Louis, MO, USA) and was used in treatment after seeding microglial cells for 3 hours with a 2×PBS wash, then replaced with microglia media every 72 hours. Concentrations of 0.25 and 2.5 mM were used 36. Microglia were grown for 11 days and then assessed using qRT-PCR, counting, and luminescent assays.” for “USA).”"}, "[6]": {"test_system": "HMC3 microglia", "experiment": "Microglial proliferation and growth on stiffness after NAC pretreatment", "type": "cell-based, human", "experimental": "Cell Count and Growth Analysis: Microglia were seeded in triplicate (7.5×10^5 cells/well) in a 12-well plate and the growth of cells was counted every other day, after which the stiffer matrices reached 100% confluency. At 48 h intervals, cells were trypsinized and counted using trypan blue exclusion tests. The doubling time of each stiffness was calculated with the following formula: […], where C_start is the number of cells at the beginning (day 0), C_end is the number of cells after a period of time t and T is the doubling time. NAC administration in microglial cells: NAC was purchased (Sigma-Aldrich, St. Louis, MO, USA) and was used in treatment after seeding microglial cells for 3 hours with a 2×PBS wash, then replaced with microglia media every 72 hours. Concentrations of 0.25 and 2.5 mM were used 36. Microglia were grown for 11 days and then assessed using qRT-PCR, counting, and luminescent assays."}, "[7]": {"test_system": "Nrf2-related genes in HTR8 cells", "settings": "sulforaphane treatment", "experimental": "Sulforaphane (SFN) is a naturally occurring compound present in cruciferous vegetables like broccoli, watercress, Brussels sprouts, cabbage, and cauliflower. […] As a potent Nrf2 activator, SFN affects the expression of approximately 200 genes, including those involved in antioxidant and anti-inflammatory processes. To explore the impact of sulforaphane treatment on the expression levels of Nrf2-related genes, HTR8 cells were cultured on 8 kPa, 25 kPa, and 55 kPa BEASTS surfaces and the gene expression was analyzed by RT-PCR.\nGene Expression analysis of the HTR8 cells: Cells were cultured on BEASTS substrates of different stiffness levels (8 kPa, 25 kPa, and 55 kPa) for four days. After the culture, the total RNA was isolated from the HTR8 cells using Trizol following the manufacturer's instructions. RNA was extracted from the aqueous phase of the cell lysates by adding chloroform, followed by\nRNA precipitation using isopropyl alcohol and rinsed with 75% ethanol. The RNA pellet was quantified and quality-checked using a spectrophotometer and then reverse-transcribed using the iScript™ cDNA synthesis kit. Subsequently, the relative expression levels of the target genes were analyzed using quantitative real-time PCR with SYBR Green Master Mix, and GAPDH was used as the housekeeping gene. The […] was employed for data analysis."}, "[8]": {"settings": "HTR8 cells, all three stiffness levels (8, 25, 55 kPa)"}}, "note": "Entries after “also recorded” stand apart in the source; their conditions may differ."}
{"smiles": "CC(=O)N[C@@H](CS)C(=O)O", "note": "[NAC, N-Acetyl-l-Cysteine]", "values": [{"measurement": "microglial morphology", "setting": "[1]", "result": "ramified"}, {"measurement": "ROS production", "setting": "[2]", "result": "mitigates; also recorded: significantly reduced; also recorded: ameliorates"}, {"measurement": "transcripts of NAC-treated versus untreated microglia", "setting": "[3]; 0.25 mM NAC pretreatment, RT-qPCR, 2, 8, 25 kPa", "result": "attenuation"}, {"measurement": "inflammatory phenotype of microglia", "setting": "[3]; NAC pretreatment, HMC3 cell line on stiffness", "result": "ameliorates"}, {"measurement": "PTGS2 expression", "setting": "[3]; NAC pretreatment, qRT-PCR", "result": "decrease"}, {"measurement": "YAP1 expression", "setting": "[3]; NAC pretreatment, qRT-PCR", "result": "decrease"}, {"measurement": "M1 inflammatory profile (printed MI profile)", "setting": "[3]; NAC-treated microglia", "result": "attenuated"}, {"measurement": "PPARG (M2 marker) expression", "setting": "[3]; NAC-treated microglia", "result": "increased"}, {"measurement": "CX3CR1 (steady-state marker) expression", "setting": "[3]; NAC-treated microglia, 25 kPa", "result": "decreased substantially"}, {"measurement": "caspase-1 activity", "setting": "[4]; 2 and 8 kPa", "result": "reduced"}, {"measurement": "caspase-1 activity", "setting": "[4]; 25 kPa", "result": "increased"}, {"measurement": "activity of non-canonical caspases", "setting": "[5]; 2 and 8 kPa", "result": "reduced"}, {"measurement": "activity of non-canonical caspases", "setting": "[5]; elevated activity at 25 kPa", "result": "attenuated"}, {"measurement": "stiffness-induced microglial proliferation / growth", "setting": "[6]", "result": "mitigates; also recorded: slows"}]}
{"smiles": "C[S+]([O-])CCCCN=C=S", "note": "(stereo not shown) [sulforaphane, Sulforaphane]", "values": [{"measurement": "expression levels of Nrf2-related genes", "setting": "[7]; HTR8 cells on 8 kPa, 25 kPa, and 55 kPa BEASTS surfaces, RT-PCR", "result": "increase"}, {"measurement": "GCLM gene expression", "setting": "[7]; HTR8 cells, 8 kPa and 55 kPa", "result": "markedly upregulated"}, {"measurement": "HMOX1 gene expression", "setting": "[7]; HTR8 cells, 55 kPa", "result": "markedly upregulated"}, {"measurement": "GSR gene expression", "setting": "[7]; [8]", "result": "significantly upregulated"}, {"measurement": "NQO1 gene expression", "setting": "[7]; [8]", "result": "significantly upregulated"}]}
